# Measured values as given in patent US11229685B2, “Fungal iron acquisition inhibitors and uses thereof” (priority 2013, dated 2022).
# Like-named read-outs stand apart in the source and are kept apart here.
# Legend:
# [1] = system: A. fumigatus strain dsRed; type: in vivo, Aspergillus fumigatus; conditions: C57BL/6 mice
# Method: Aspergillus and Fusarium strains were cultured as described above for 2-3 days, and fresh conidia were disrupted with a bacterial L-loop, harvested in 5 ml PBS, and filtered through sterile PBS soaked cotton gauze in a 10 ml syringe to obtain pure conidial suspensions. Conidia were quantified using a hemocytometer and adjusted in PBS to a final stock solution of 15-20,000 conidia/μl. Mice were anaesthetized with 1.25% 2,2,2-tri-bromoethanol in PBS. The corneal epithelium was abraded using a 30-gauge needle, through which a 2 μl injection containing conidia was released into the corneal stroma using a 33-gauge Hamilton syringe. Mice were examined daily under a stereomicroscope for corneal opacification, and quantified by image analysis using Metamorph software as described. At each time point, animals were euthanized by CO2 asphyxiation, and eyes were either placed in 10% formalin and embedded in paraffin, sectioned at 5 μm intervals and stained with periodic acid schiff and hematoxylin (PASH), or were placed in 1 ml of sterile PBS, homogenized and colony forming units (CFU) were quantified by manual count.
# For topical drug delivery, compounds were suspended in a commercial eye drop formulation (Alcon laboratories) or in PBS and 8 μl applied topically at 0 h and 6 h post-infection. Lactoferrin (1.25 mg/ml), deferiprone (10 mM), deferroxamine (10 mM), and simvastatin (4 mM) were purchased from Sigma Aldrich (St. Louis, Mo.). BEC (28 mM) was obtained from Cayman chemicals (Ann Arbor, Mich.). E. coli-expressed recombinant human lipocalin-1 was purified as described previously and applied topically at 2 mg/ml. Iron-dextran and deferroxamine were both purchased from Sigma and administered systemically to mice via daily I.P. injections of 5 mg starting at day −2 until mice were euthanized. All animals were bred under specific pathogen-free conditions and maintained according to institutional guidelines.
# Growth of the RFP expressing A. fumigatus strain in the cornea was detected using fluorescent microscopy and quantified by Metamorph image analysis. For assessment of fungal viability, whole eyes were homogenized under sterile conditions in 1 ml PBS, using the Mixer Mill MM300 (Retsch) at 33 Hz for 4 min. Subsequently, 100 μl aliquots were plated onto bacteriologic-grade sabouraud dextrose agar plates, incubated for 24 h at 37° C. (Aspergillus) or at 30° C. (Fusarium and Alternaria), and the number of CFUs was determined by direct counting.
# [2] = system: A. fumigatus; assay: In vitro human neutrophil:hyphae growth inhibition assay (calcofluor white fluorometry); type: cell-based, Aspergillus fumigatus; conditions: for growth of A. fumigatus: incubation in media for 16 h
# Method: (§1) FIGS. 8(A-G) illustrate a schematic drawing, images, and graphs showing the effect of topical simvastatin and deriprone on fungal infection. A. Statin targeting of fungal HMG-CoA reductase in siderophore biosynthesis. B, C. Effect of statins and iron chelators on growth of A. fumigatus and F. oxysporum in vitro. B. Simvastatin, lovastatin, deferiprone, or deferroxamine were added to growing cultures of A. fumigatus or C. F. oxysporum for 16 h, and hyphal growth was quantified by calcofluor white. D. Growth of A. fumigatus incubated with these compounds in the absence (black bars) or presence (gray bars) of human neutrophils by calcofluor white quantification (data are mean+/−SEM of five replicate wells) E. C57BL/6 mice were infected with A. fumigatus and at 0 and 6 h post-infection 13.4 μg of simvastatin (Sv), deferiprone (11.1 μg), deferroxamine (52.5 μg), Sv+ deferiprone, or Sv+ deferroxamine was applied topically to infected corneas and eyes were imaged at 24 h post-infection. F. Metamorph image analysis was used to quantify fungal dsRed expression and G. eyes were homogenized for CFU analysis. B-D: data are mean+/−SEM of five replicate wells; F, G: data points represent individual corneas.
# Human neutrophils were isolated from normal, healthy donors using Ficoll-Paque Plus (GE) density centrifugation as described. Isolated conidia from each A. fumigatus mutant were cultured in 200 μl SDA media (12,500/well) in black-wall 96 well plates with an optically clear bottom (CoStar 3720) until early germ tubes were observed (4-6 h). Wells were washed twice with sterile ddH2O and incubated 16 h with either RPMI media (+ Control), PBS (− Control), or a sublethal dose of human peripheral blood neutrophils in RPMI (0.5−1*10^5/well). At 16 h post-exposure, plates were washed once and stained with 50 μl calcofluor white stain (Binds chitin; Fluka 18909) for 5 min in the dark. Subsequently, plates were washed three times with ddH2O and quantified by fluorometry (360/440 nm; Synergy HT; Biotek).
# HMG CoA reductase is required for mevalonate production and can be targeted by statins resulting in decreased siderophore biosynthesis (FIG. 8A). To determine the effect of blocking this pathway on fungal growth, A. fumigatus and Fusarium oxysporum were incubated in media with simvastatin and lovastatin, or with the iron chelators, deferiprone and deferroxamine.
# [3] = system: F. oxysporum; assay: In vitro hyphal growth of F. oxysporum with statins and iron chelators (calcofluor white); type: cell-based, Fusarium oxysporum; conditions: incubation in media for 16 h; b217 says results similar to A. fumigatus (less growth with statins and deferiprone, not deferroxamine)
# Method: as §1, with “B-D: data are mean+/−SEM of five replicate wells; F, G: data points represent individual corneas.” left out
# Human neutrophils were isolated from normal, healthy donors using Ficoll-Paque Plus (GE) density centrifugation as described. […] Subsequently, plates were washed three times with ddH2O and quantified by fluorometry (360/440 nm; Synergy HT; Biotek). […]
# [4] = plus human neutrophils, vs neutrophils alone
# [5] = topical 16 μg/8 μl at 0 h and 6 h after infection, vs infected mice without exogenous Lcn-1
# [6] = topical 10.4 μg in 8 μl at 0 h and 6 h post-infection, 24 h post-infection, vs vehicle
molecule,measurement,setting,value
"Cc1c(O)c(=O)ccn1C [deferiprone, 1,2 dimethyl-3-hydroxypyrid-4-1]",fungal dsRed emission,"[1]; topical at 0 and 6 h post-infection (simvastatin 13.4 μg, deferiprone 11.1 μg, deferroxamine 52.5 μg), 24 h, vs vehicle-treated mice",significantly less
same,growth of A. fumigatus,[2]; no neutrophils,significantly less growth
same,A. fumigatus growth in the presence of human neutrophils,[2]; [4],inhibited
CC[C@H](C)C(=O)O[C@H]1C[C@@H](C)C=C2C=C[C@H](C)[C@H](CC[C@@H]3C[C@@H](O)CC(=O)O3)[C@H]21 [lovastatin],growth of A. fumigatus,[2]; no neutrophils,significantly less growth
same,A. fumigatus growth in the presence of human neutrophils,[2]; [4],inhibited
same,growth of Fusarium oxysporum,[3],significantly less fungal cell growth
"N=C(NO)NCC[C@H](N)C(=O)O [nNOHA, N^ω-Hydroxy-nor-L-arginine]",fungal growth,"[2]; 100 μM, no neutrophils, vs RPMI alone",significantly lower than in RPMI alone
same,fungal growth when incubated with neutrophils,"[2]; plus human neutrophils, vs neutrophils alone, concentration not given",not significantly different from neutrophils alone
"Lcn-1: E. coli-expressed recombinant human lipocalin-1, siderophore binding protein",CFU,[1]; [5],significantly less
same,fungal dsRed,[1]; [5],significantly less
same,A. fumigatus growth in the presence of neutrophils,"[2]; 4 μg/ml plus human neutrophils, vs neutrophils alone or Lcn-1 alone",significantly less than in the presence of neutrophils alone or with Lcn-1 alone
same,fungal growth,"[2]; 4 μg/ml, absence of neutrophils",significantly less
same,fungal growth,"[2]; 40 μg/ml, absence of neutrophils",significantly less
lactoferrin,CFU,[1]; [6],significantly less
same,fungal mass (dsRed),[1]; [6],significantly less
